Results published in ChEMBL document CHEMBL3826923, “Synthesis and biological activity of novel ester derivatives of N(3)-(4-metoxyfumaroyl)-(S)-2,3-diaminopropanoic acid containing amide and keto function as inhibitors of glucosamine-6-phosphate synthase” (Bioorg Med Chem Lett, 2016).
pIC50: −log10 of the molar value.

What was measured:
Candida albicans = assay: Antimicrobial activity against Candida albicans ATCC 10231 after 48 hrs by serial two fold dilution method; format: functional; details: ATCC 10231, 48 h
Nakaseomyces glabratus = assay: Antimicrobial activity against Candida glabrata DSM 11226 after 48 hrs by serial two fold dilution method; format: functional; details: DSM 11226, 48 h
Staphylococcus aureus = assay: Antimicrobial activity against Staphylococcus aureus ATCC 29213 after 24 hrs by serial two fold dilution method; format: functional; details: ATCC 29213, 24 h
Escherichia coli = assay: Antimicrobial activity against Escherichia coli PCM 2560 after 24 hrs by serial two fold dilution method; format: functional; details: PCM 2560, 24 h
[1] = Inhibition of Candida albicans glucosamine-6-phosphate synthase expressed in Escherichia coli using D-fructose-6-phosphate as substrate after 30 mins

Compound	MIC80 (Candida albicans)	MIC80 (Nakaseomyces glabratus)	MIC80 (Staphylococcus aureus)	MIC80 (Escherichia coli)	pIC50 [1]
COC(=O)/C=C/C(=O)NC[C@H](N)C(=O)OCC(N)=O.Cl	128 µg/mL	> 1020 µg/mL	> 1020 µg/mL	> 1020 µg/mL	3.69
COC(=O)/C=C/C(=O)NC[C@H](N)C(=O)O[C@@H](C)C(=O)N(C)C.Cl	256 µg/mL	> 1020 µg/mL	> 1020 µg/mL	> 1020 µg/mL	< 2.30
COC(=O)/C=C/C(=O)NC[C@H](N)C(=O)OCC(=O)N(C)C.Cl	2 µg/mL	> 1020 µg/mL	512 µg/mL	> 1020 µg/mL	4.18
CNC(=O)[C@H](C)OC(=O)[C@@H](N)CNC(=O)/C=C/C(=O)OC.Cl	16 µg/mL	> 1020 µg/mL	> 1020 µg/mL	> 1020 µg/mL	3.70
COC(=O)/C=C/C(=O)NC[C@H](N)C(=O)O[C@@H](C)C(N)=O.Cl	8 µg/mL	> 1020 µg/mL	> 1020 µg/mL	> 1020 µg/mL	4.09
CNC(=O)COC(=O)[C@@H](N)CNC(=O)/C=C/C(=O)OC.Cl	1 µg/mL	> 1020 µg/mL	1020 µg/mL	> 1020 µg/mL	4.57

The next compounds have a higher pIC50 [1] than those just listed; values first:

MIC80 (Candida albicans)	MIC80 (Nakaseomyces glabratus)	MIC80 (Staphylococcus aureus)	MIC80 (Escherichia coli)	pIC50 [1]	Compound
0.5 µg/mL	512 µg/mL	> 1020 µg/mL	> 1020 µg/mL	5.29	COC(=O)/C=C/C(=O)NC[C@H](N)C(=O)OCC(=O)C(C)(C)C.Cl
0.5 µg/mL	512 µg/mL	> 1020 µg/mL	> 1020 µg/mL	5.31	COC(=O)/C=C/C(=O)NC[C@H](N)C(=O)OC(C)C(C)=O.Cl (stereo not given in full)
> 1020 µg/mL	> 1020 µg/mL	> 1020 µg/mL	> 1020 µg/mL	5.39	COC(=O)/C=C/C(=O)NC[C@H](N)C(=O)O
0.25 µg/mL	512 µg/mL	> 1020 µg/mL	> 1020 µg/mL	5.29	COC(=O)/C=C/C(=O)NC[C@H](N)C(=O)OCC(C)=O.Cl
